# Data reported in patent US20240238235A1, “METHODS AND COMPOSITIONS FOR TREATING PULMONARY ALVEOLAR PROTEINOSIS RELATED TO MARS MUTATIONS” (INSTITUT NATIONAL DE LA SANTÉ ET DE LA RECHERCHE MÉDICALE, priority 2021, published 2024).
# Where two headings read alike, the source gives them in different places.
# What was measured:
# [1] = tested on: yeast; settings: methionine supplementation in the culture medium; cited from earlier work
# [2] = tested on: pulmonary alveolar proteinosis related to MARS mutations; settings: P1, 3 and 4
# From the text: We compared the course of treated patients to that of patients reported by Enaud et al. 2 as well as seven patients diagnosed since this publication. Data collection and analysis for these patients were approved by the Institutional Review Board of the French Respiratory Society (CEPRO2013-019) and the CPP Île de France II (CPP2013-12-03 SC).
# Several parameters were compared between treated patients and HC. We computed the difference between the values for each continuous variable at inclusion and at last follow-up for each treated patient, as well as between diagnosis and six months to one year from diagnosis for the HC. Differences were compared between groups using Mann-Whitney tests. For each categorical variable (i.e., weaning from oxygen and enteral nutrition), we compared the proportion of patients who were weaned from such support at the second assessment between groups using Fisher's exact test. A p-value<0.05 was considered statistically significant.
# [3] = tested on: pulmonary alveolar proteinosis related to MARS mutations
# From the text: Eight patients started the treatment from the age of 11 to 24 years old. […] In the 7 seven remaining patients, treatment was started less than one year ago and will be assessed in the next months.
# [4] = tested on: peripheral monocytes; settings: control = 100%
# Method: Peripheral monocyte and phagocyte functions were assessed by quantifying ROS production. Whole blood collected from lithium heparinized tubes (500 μl) was incubated for 15 min at 37° C. with dihydrorhodamine 123[…] (Sigma-Aldrich). Samples were then treated for 1 h at 37° C. with GM-CSF (10 ng/ml; R&D Systems), followed by stimulation for 5 min with fMLF (10^-5M; Sigma-Aldrich). The reaction was stopped by adding 1 ml ice-cold lysis solution (BD Biosciences) and incubating for 5 min on ice. Samples were then washed with PBS (Sigma-Aldrich) and the pellets resuspended in 300 μl FacsFlow solution (BD Biosciences). Samples were analyzed by flow cytometry on a FACSCanto II (BD Biosciences). Phagocytes (neutrophils and monocytes) were selected on the FSC-SSC dot plot. Events (50,000) were recorded at a constant PMT voltage. Results are expressed as the index of stimulation (MIF DHE GM-CSF+fMLP/DHE GM-CSF alone).
# [5] = tested on: patients presenting pulmonary alveolar proteinosis due to the double mutation Ala393Thr/Ser567Leu in MARS
# From the text: The MetPAP study was registered at clinicaltrials.gov (NCT03887169). […] The secondary objectives were to determine the efficacy of such treatment.
smiles,measurement,setting,value
"CSCC[C@H](N)C(=O)O [methionine, L-methionine]",growth and enzyme activity in yeast impaired by Ala393Thr/Ser567Leu mutations,[1],restored
same,"change M0 to M6-M12 of blood neutrophils, CRP, albumin and GGT versus HC","[2]; p=0.011, 0.039, 0.006, 0.038",greater improvement
same,patients weaned off oxygen at the second assessment,"[2]; vs 1/15 HC, p=0.056",2/3
same,patients weaned off enteral nutrition at the second assessment,"[2]; vs none of 18 HC, p=0.014",2/3
same,clinical outcome,"[3]; 1 patient, treatment started 2 years ago","improve clinical respiratory status (regression of dry cough and exercise dyspnoea), to improve lung function (gain in forced vital capacity and diffuse capacity of carbon monoxide), and to improve chest CT scan (regression of ground glass opacities, stabilization of the fibrosis)"
same,clinical outcome,[3]; 2 patients treated between 1 and 2 years of age,"stop whole lung lavages, to “clean” the chest CT scan from the alveolar consolidations and stop the progression of fibrotic lesions, to catch-up on weight and to normalize liver blood tests and inflammatory markers"
same,clinical outcome,[3]; 4 additional patients treated from diagnosis (3 to 6 months),"stop whole lung lavages or even to avoid it, to normalize the chest CT scan after 3 months of treatment, to normalize the liver blood tests and inflammatory markers, to catch-up on weight, and to wean off the oxygen and nutritional support initially required"
same,stimulation index relative to control (GM-CSF priming of ROS production by peripheral monocytes),"[4]; P1, after three months of treatment (M3)",109%
same,stimulation index relative to control (GM-CSF priming of ROS production by peripheral monocytes),"[4]; P3, after three months of treatment (M3)",73%
same,elevated transaminases (multiple of normal value),"[5]; P3, D21, judged not attributable to a toxic effect of methionine",> 3 N
same,Tolerance of methionine supplementation,[5]; during the protocol and after,well tolerated
